According to patent publication US10736326B2, “Nematode dispersant composition and method” (PHERONYM, INC., priority 2016, dated 2020):
“Also recorded” adds a separate entry of the source.

Tested on: S. feltiae infective juveniles (IJ)
Test: Dispersal assay with S. feltiae infective juveniles on agar plates
Type: in vivo, Steinernema feltiae
Settings: S. feltiae IJs; for dispersal activity in combination with fractions B and C: ascr#11 1.3 pmol/μl, FIG. 1C, 1D; for dispersal activity by itself: physiologically relevant concentration (ascr#9 40.3 pmol/μl, ascr#11 1.3 pmol/μl), FIG. 1B
Experimental: The dispersal assay for the activity guided purification in FIG. 1 used S. feltiae IJs that were washed with MILLI-Q water three times and incubated in 6 cm petri dishes for 36 h with a small amount (4-5 ml) of MILLI-Q water. The following day, nematodes were placed on a 10.7 g/L agar with gel strength 1010 g/cm^2 (PhytoTechnology Lab. Shawnee Mission, Kans.). Nematode behavior was assayed on multiple plates with internal plate replicates to rule out the possibility that behavior was affected by plate composition. Approximately 300 IJs in 10 μl water were placed on an agar medium and the test compounds or extracts were placed into 1-2 μl to the nematode suspension. Upon absorption (15-20 min) of the liquid, the freely moving nematodes were video-recorded for 5-10 min. Dispersal behavior is temperature and season dependent. During winter, the assay is effective at RT (22±1° C.). During summer, the assay requires a temperature-controlled environment due to effects on nematode behavior above 23° C.
Activity guided fractionation was conducted as described by Srinivasan et al 2008 with modifications. A total of 33 insect host cadavers (G. mellonella larvae) were placed into 70% EtOH and stored at −20° C. until extraction. The insect cadavers were homogenized using 1 g of ceramic zirconium beads (1.25 mm) (ZIRMIL) in 2 ml tubes for 37 sec using a Precellys24 (http://www.precellys.com) homogenizer. Samples were centrifuged for 15 min at 18400 rcf and the supernatant was lyophilized and resuspended in MILLI-Q water. The dispersal activity of nematodes was tested using the dispersal assay described herein above and a physiologically relevant concentration of insect host cadaver extract or fractionated extract. To facilitate calculations for physiologically relevant concentration of the ascarosides, wax worm volume was estimated at 200 μl; the average weight of wax worms was 232 (+/−57 mg; n=19).
The first reverse-phase solid-phase extraction was performed using Sep-Pak Plus C18 cartridges (Waters corporation, Milford, Mass.). The initially collected flow through was termed Fraction A. Thereafter, the column was washed with water, collected and saved. Subsequently, the column was eluted with 50% (Fraction B) and 90% MeOH (Fraction C). The fractions were tested for dispersal activity both individually and in combination. Also individual fractions were analyzed by LC-MS. Fraction A contained ascr#9, which was collected by LC-MS and tested for activity with Fraction B+C.
A total of 33 insect host cadavers ([…] larvae) were placed into 70% EtOH and were homogenized using 1 g of ceramic zirconium beads (1.25 mm) (ZIRMIL) in 2 ml tubes for 37 sec using a Precellys24 (http://www.precellys.com) homogenizer. Samples were centrifuged for 15 min at 18400 rcf and the supernatant was lyophilized and resuspended in MILLI-Q water. The dispersal activity of nematodes was tested using the dispersal assay described herein above. The extracts were resuspended in water as 10 times concentrated. The average weight of insect host is estimated 200 microL and therefore the dry cadavers extract from 1 insect equivalent was diluted in 20 microL of water. One microL of the concentrated extracts was added to the 10 ul of IJ water suspension.

SMILES | dispersal activity in combination with fractions B and C (listed as natural ascr#9) | dispersal activity in combination with fractions B and C (listed as synthetic ascr#9) | dispersal activity by itself | dispersal activity in combination with fractions B and C
C[C@H](CCC(=O)O)O[C@@H]1O[C@@H](C)[C@H](O)C[C@H]1O [ascr#9] | active | confirms the active component | not active by themselves | –
C[C@H](CC(=O)O)O[C@@H]1O[C@@H](C)[C@H](O)C[C@H]1O [ascr#11] | – | – | not active by themselves | sufficient to cause dispersal; also recorded: active with the other two fractions
